Publication PMC9312917 (2022)

Legend:
Assay in all cases: graphene oxide fluorescence assay
Conditions in all cases: 100 mM NaCl, 5 mM KCl, 2 mM MgCl2, 1 mM CaCl2; 20 mM Tris-HCl pH 7.5, room temperature; aptamer 0-400 nM titrated at fixed 1 µg/mL SQX
[1] = test system: SBA24-1 (DNA, aptamer) GCGTGAGC
[2] = test system: SBA40-1 (DNA, aptamer) GGCTGACTGCT
[3] = test system: SBA28-1 (DNA, aptamer) CCCTAGGGG

Kd [1]: 74.19 nM | Kd [2]: 36.73 nM | Kd [3]: 27.36 nM
Compound: Nc1ccc(S(=O)(=O)Nc2cnc3ccccc3n2)cc1
